Reference: paper PMC3026091 (Antiviral research, 2010)

How the values were obtained:
DEN2V NS2B-NS3pro = assay type: biochemical, dengue 2 virus (strain TSV01); details: mechanism of inhibition of DEN2V NS2B-NS3pro, Dynafit model selection
[1] = molecular target: T1, Bovine pancreatic trypsin (Bos taurus, UniProt P00760); test: Trypsin inhibition assay with chromogenic BAPNA substrate; assay type: biochemical; details: analog 100 µM, trypsin 60 µM, BAPNA 500 µM; data not shown
T1 sequence (P00760 24-246): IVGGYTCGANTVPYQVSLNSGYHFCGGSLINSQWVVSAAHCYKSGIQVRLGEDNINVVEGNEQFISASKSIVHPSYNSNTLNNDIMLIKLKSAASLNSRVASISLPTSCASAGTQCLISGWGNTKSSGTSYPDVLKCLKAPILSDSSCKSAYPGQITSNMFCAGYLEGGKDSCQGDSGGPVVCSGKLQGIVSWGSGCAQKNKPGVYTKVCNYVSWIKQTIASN

[2] = molecular target: T1, Bovine pancreatic trypsin; test: Steady-state kinetics of inhibitors of trypsin; assay type: biochemical; details: BOC-GRR-AMC fluorogenic substrate; for Mechanism (trypsin): mechanism of trypsin inhibition

| SMILES | Mechanism (DEN2V NS2B-NS3pro) | Inhibition of trypsin cleavage of the chromogenic substrate BAPNA [1] | Mechanism (trypsin) [2] | Ki ([2]; read-out: Ki2 trypsin, 50 nM trypsin) |
| --- | --- | --- | --- | --- |
| O=C1c2c(O)ccc([N+](=O)[O-])c2C(=O)c2c([N+](=O)[O-])ccc(O)c21 [ARDP0006] | competitive inhibition model | inhibited trypsin cleavage of the fluorogenic substrate but not the chromogenic substrate | uncompetitive trypsin inhibitor | 13 ± 0.1 µM |
| N=C(N)c1ccccc1 [Benzamidine, reference compound] |  |  | Competitive |  |
